system: Min6 cell; assay: Insulin secretion response of beta cell line to formula I compounds (insulin ELISA); assay type: cell-based; details: rank according to % increase versus control at most effective dose
Summary of the method: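 After compound or vehicle exposure, Min6 cells were held 2 h in glucose-free medium and preincubated 30 min at 37° C in glucose-free KRBH (pH 7.4, 0.1% BSA). They were then incubated 30 min at 37° C in KRBH with varying glucose. Secreted insulin and acid-ethanol-extracted intracellular insulin were measured by ELISA.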

SMILES | Insulin secretion (Min6 cell) Range 1 to 5
COc1ccc2c(c1OC(F)F)CN(C1CC1)C(=O)CCN2C[C@@H](O)COc1ccc(Cl)cc1 [Compound 134, (R)-1-(3-(4-chlorophenoxy)-2-hydroxypropyl)-5-cyclopropyl-7-(difluoromethoxy)-8-methoxy-2,3,5,6-tetrahydrobenzo[b][1,5]diazocin-4(1H)-one] | 1 (1: 90-110% of control)
O=C1CCN(C[C@@H](O)COc2ccc(Cl)cc2)c2ccc(Cl)cc2CN1C1CC1 [Compound 135, (R)-8-chloro-1-(3-(4-chlorophenoxy)-2-hydroxypropyl)-5-cyclopropyl-2,3,5,6-tetrahydrobenzo[b][1,5]diazocin-4(1H)-one] | 1 (1: 90-110% of control)
CS(=O)(=O)c1ccc(OC[C@H](O)CN2CCC(=O)N(C3CC3)Cc3cc(F)ccc32)cc1 [Compound 136, (R)-5-cyclopropyl-8-fluoro-1-(2-hydroxy-3-(4-(methylsulfonyl)phenoxy)propyl)-2,3,5,6-tetrahydrobenzo[b][1,5]diazocin-4(1H)-one] | 1 (1: 90-110% of control)
CS(=O)(=O)c1ccc(OC[C@H](O)CN2CCC(=O)N(C3CC3)Cc3cc(Cl)ccc32)cc1 [Compound 137, (R)-8-chloro-5-cyclopropyl-1-(2-hydroxy-3-(4-(methylsulfonyl)phenoxy)propyl)-2,3,5,6-tetrahydrobenzo[b][1,5]diazocin-4(1H)-one] | 2 (2: 110-120% of control)
Cc1cc(C(=O)N2CCC(=O)N(C3CC3)Cc3c2ccc2c3OCCO2)on1 [Compound 138, 11-cyclopropyl-7-(3-methylisoxazole-5-carbonyl)-2,3,8,9,11,12-hexahydro-[1,4]dioxino[2′,3′:3,4]benzo[1,2-b][1,5]diazocin-10(7H)-one] | 1 (1: 90-110% of control)
Cc1cc(C(=O)N2CCC(=O)N(C3CC3)Cc3cc(Cl)ccc32)on1 [Compound 139, 8-chloro-5-cyclopropyl-1-(3-methylisoxazole-5-carbonyl)-2,3,5,6-tetrahydrobenzo[b][1,5]diazocin-4(1H)-one] | 1 (1: 90-110% of control)
COc1ccc2c(c1OC(F)F)CN(C1CC1)C(=O)CCN2C(=O)c1cc(C)no1 [Compound 140, 5-cyclopropyl-7-(difluoromethoxy)-8-methoxy-1-(3-methylisoxazole-5-carbonyl)-2,3,5,6-tetrahydrobenzo[b][1,5]diazocin-4(1H)-one] | 3 (3: 120-140% of control)
COc1ccc2c(c1)CN(C1CC1)C(=O)CCN2C(=O)c1cc(C)no1 [Compound 141, 5-cyclopropyl-8-methoxy-1-(3-methylisoxazole-5-carbonyl)-2,3,5,6-tetrahydrobenzo[b][1,5]diazocin-4(1H)-one] | 4 (4: 140-170% of control)
Cc1cc(C(=O)N2CCC(=O)N(C3CC3)Cc3cc(OC(F)F)ccc32)on1 [Compound 142, 5-cyclopropyl-8-(difluoromethoxy)-1-(3-methylisoxazole-5-carbonyl)-2,3,5,6-tetrahydrobenzo[b][1,5]diazocin-4(1H)-one] | 4 (4: 140-170% of control)
O=C(CN1CCC(=O)N(C2CC2)Cc2cc(Cl)ccc21)c1ccc(OC(F)F)cc1 [Compound 143, 8-chloro-5-cyclopropyl-1-(2-(4-(difluoromethoxy)phenyl)-2-oxoethyl)-2,3,5,6-tetrahydrobenzo[b][1,5]diazocin-4(1H)-one] | 2 (2: 110-120% of control)
O=C(CN1CCC(=O)N(C2CC2)Cc2c1ccc1c2OCCO1)c1ccc(OC(F)F)cc1 [Compound 144, 11-cyclopropyl-7-(2-(4-(difluoromethoxy)phenyl)-2-oxoethyl)-2,3,8,9,11,12-hexahydro-[1,4]dioxino[2′,3′:3,4]benzo[1,2-b][1,5]diazocin-10(7H)-one] | 1 (1: 90-110% of control)
OC(CN1CCCN(C2CC2)Cc2cc(F)ccc21)c1ccc(Cl)cc1 (stereo not shown) [Compound 145, 1-(4-chlorophenyl)-2-(5-cyclopropyl-8-fluoro-3,4,5,6-tetrahydrobenzo[b][1,5]diazocin-1(2H)-yl)ethanol] | 3 (3: 120-140% of control)
C[C@H](O)CN1CCC(=O)N(C2CC2)Cc2c1ccc1c2OCCO1 [Compound 146, (S)-11-cyclopropyl-7-(2-hydroxypropyl)-2,3,8,9,11,12-hexahydro-[1,4]dioxino[2′,3′:3,4]benzo[1,2-b][1,5]diazocin-10(7H)-one] | 5 (5: >170% of control)
C[C@H](O)CN1CCC(=O)N(C2CC2)Cc2cc(Cl)ccc21 [Compound 147, (S)-8-chloro-5-cyclopropyl-1-(2-hydroxypropyl)-2,3,5,6-tetrahydrobenzo[b][1,5]diazocin-4(1H)-one] | 2 (2: 110-120% of control)
O=C1CCN(CC(O)c2ccc(OC(F)F)cc2)c2ccc(Cl)cc2CN1C1CC1 (stereo not shown) [Compound 148, 8-chloro-5-cyclopropyl-1-(2-(4-(difluoromethoxy)phenyl)-2-hydroxyethyl)-2,3,5,6-tetrahydrobenzo[b][1,5]diazocin-4(1H)-one] | 1 (1: 90-110% of control)
O=C1CCN(CC(O)c2ccc(OC(F)F)cc2)c2ccc3c(c2CN1C1CC1)OCCO3 (stereo not shown) [Compound 149, 11-cyclopropyl-7-(2-(4-(difluoromethoxy)phenyl)-2-hydroxyethyl)-2,3,8,9,11,12-hexahydro-[1,4]dioxino[2′,3′:3,4]benzo[1,2-b][1,5]diazocin-10(7H)-one] | 3 (3: 120-140% of control)

SMILES | Insulin secretion (Min6 cell) Range 1 to 5
O=C1CCN(C(=O)Cc2ccc(F)cc2)c2ncccc2CN1CC1CC1 [Compound 150, 5-(cyclopropylmethyl)-1-(2-(4-fluorophenyl)acetyl)-2,3,5,6-tetrahydropyrido[2,3-b][1,5]diazocin-4(1H)-one] | 4 (4: 140-170% of control)
Cc1cc(C(=O)N2CCC(=O)N(CC3CC3)Cc3cccnc32)on1 [Compound 151, 5-(cyclopropylmethyl)-1-(3-methylisoxazole-5-carbonyl)-2,3,5,6-tetrahydropyrido[2,3-b][1,5]diazocin-4(1H)-one] | 1 (1: 90-110% of control)
O=C1CCN(C(=O)c2cnccn2)c2ncccc2CN1CC1CC1 [Compound 152, 5-(cyclopropylmethyl)-1-(pyrazine-2-carbonyl)-2,3,5,6-tetrahydropyrido[2,3-b][1,5]diazocin-4(1H)-one] | 3 (3: 120-140% of control)
O=C1CCN(C(=O)c2cccnc2)c2ncccc2CN1CC1CC1 [Compound 153, 5-(cyclopropylmethyl)-1-nicotinoyl-2,3,5,6-tetrahydropyrido[2,3-b][1,5]diazocin-4(1H)-one] | 3 (3: 120-140% of control)
CC(C)(C)C(O)CN1CCC(=O)N(C2CCCC2)Cc2cc(F)ccc21 (stereo not shown) [Compound 154, 5-cyclopentyl-8-fluoro-1-(2-hydroxy-3,3-dimethylbutyl)-2,3,5,6-tetrahydrobenzo[b][1,5]diazocin-4(1H)-one] | 1 (1: 90-110% of control)
COc1ccc2c(c1)CN(CC=C(C)C)C(=O)CCN2C(=O)c1ccno1 [Compound 156, 1-(isoxazole-5-carbonyl)-8-methoxy-5-(3-methylbut-2-enyl)-2,3,5,6-tetrahydrobenzo[b][1,5]diazocin-4(1H)-one] | 1 (1: 90-110% of control)
CCC#CCN1Cc2ccccc2N(C(=O)c2ccno2)CCC1=O [Compound 158, 1-(isoxazole-5-carbonyl)-5-(pent-2-ynyl)-2,3,5,6-tetrahydrobenzo[b][1,5]diazocin-4(1H)-one] | 1 (1: 90-110% of control)
O=C1CCN(C(=O)c2ccno2)c2cc3c(cc2CN1CC1CC1)OCO3 [Compound 159, 9-(cyclopropylmethyl)-5-(isoxazol-5-ylcarbonyl)-6,7,9,10-tetrahydro[1,3]dioxolo[4,5-i][1,5]benzodiazocin-8(5H)-one] | 1 (1: 90-110% of control)
COc1ccc2c(c1)CN(C1CC1)C(=O)CCN2C(=O)C1CCC1 [Compound 160, 1-(cyclobutanecarbonyl)-5-cyclopropyl-8-methoxy-2,3,5,6-tetrahydrobenzo[b][1,5]diazocin-4(1H)-one] | 1 (1: 90-110% of control)
O=C1CCNc2cc3c(cc2CN1C1CCCC1)OCO3 [Compound 161, 9-cyclopentyl-6,7,9,10-tetrahydro[1,3]dioxolo[4,5-i][1,5]benzodiazocin-8(5H)-one] | 1 (1: 90-110% of control)
CC(C)(C)OCC(O)CN1CCC(=O)N(C2CC2)Cc2cc3c(cc21)OCO3 (stereo not shown) [Compound 162, 5-(3-tert-butoxy-2-hydroxypropyl)-9-cyclopropyl-6,7,9,10-tetrahydro[1,3]dioxolo[4,5-i][1,5]benzodiazocin-8(5H)-one] | 1 (1: 90-110% of control)
CCN1Cc2ccccc2N(CC(C)O)CCC1=O (stereo not shown) [Compound 163, 5-ethyl-1-(2-hydroxypropyl)-2,3,5,6-tetrahydrobenzo[b][1,5]diazocin-4(1H)-one] | 1 (1: 90-110% of control)
CCN1Cc2cc(F)ccc2N(CC(O)C(C)(C)C)CCC1=O (stereo not shown) [Compound 166, 5-ethyl-8-fluoro-1-(2-hydroxy-3,3-dimethylbutyl)-2,3,5,6-tetrahydrobenzo[b][1,5]diazocin-4(1H)-one] | 1 (1: 90-110% of control)
C=CCOc1c(OC)ccc2c1CN(CC)C(=O)CCN2CC(O)COc1ccccc1 (stereo not shown) [Compound 167, 7-(allyloxy)-5-ethyl-1-(2-hydroxy-3-phenoxypropyl)-8-methoxy-2,3,5,6-tetrahydrobenzo[b][1,5]diazocin-4(1H)-one] | 2 (2: 110-120% of control)
O=C1CCN(C[C@@H](O)COCc2ccccc2)c2ccc(F)cc2CN1C1CCCC1 [Compound 168, (R)-1-(3-(benzyloxy)-2-hydroxypropyl)-5-cyclopentyl-8-fluoro-2,3,5,6-tetrahydrobenzo[b][1,5]diazocin-4(1H)-one] | 4 (4: 140-170% of control)

Reference: patent US8765728B2, “[1,5]-diazocin derivatives” (MelliTech, priority 2009, dated 2014)
